Results taken from paper PMC5594493, “Antiproliferative factor (APF) binds specifically to sites within the cytoskeleton-associated protein 4 (CKAP4) extracellular domain” (BMC Biochemistry, 2017).

Legend:
CKAP4_127–360 = molecular target: T1, CKAP4_127–360 (Homo sapiens, UniProt Q07065); assay: SPR detection of as-APF in spiked urine, CKAP4_127–360 biosensor; type: binding; conditions: immobilized CKAP4_127–360
T1 construct: amino acids 106–602, 127–360, 361–524, and 525–602 regions were generated by PCR and subcloned into the pET-15b bacterial expression vector; His-tag; made in house; host or cells: E. coli BL21(DE3)pLysS
T1 sequence (Q07065 127-360): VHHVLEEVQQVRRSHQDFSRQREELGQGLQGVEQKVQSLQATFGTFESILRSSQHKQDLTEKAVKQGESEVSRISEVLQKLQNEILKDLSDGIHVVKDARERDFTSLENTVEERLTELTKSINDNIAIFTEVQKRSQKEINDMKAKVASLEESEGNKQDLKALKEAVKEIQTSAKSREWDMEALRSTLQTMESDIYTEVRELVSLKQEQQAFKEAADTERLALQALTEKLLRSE
Protocol: For experiments using spiked urine, CKAP4_127–360 was immobilized on the Fc2 channel of a CM5 chip by amine-coupling, as the ligand. The Fc1 channel was similarly treated but without CKAP4, to serve as reference. A control urine sample from a healthy donor was mixed 1:1 with as-APF stock (200 μM) solution. Various dilutions of this mixture in SPR running buffer were prepared to yield desired as-APF final concentrations, and then injected over the sensor chip surface. Corresponding dilutions of unspiked control urine were run under identical conditions to account for background interference from urinary constituents. To ensure identical running conditions, all dilutions were adjusted to 1X SPR running buffer from a 10X stock. Sensorgrams were corrected for background interference from urinary constituents by subtracting the RU traces resulting from unspiked urine injections from the RU traces resulting from the corresponding urine dilutions with spiked as-APF, and subsequently replotted after subtracting the RU trace from the reference (Fc1) channel.
In order to determine whether this SPR-based assay employing CKAP4 as a biosensor could be used to detect APF in urine, we used urine from healthy donors spiked with as-APF as a mimetic for IC patient urine. CKAP4_127–360 was employed as the biosensing ligand, since it bound as-APF with the highest affinity. […]

full-length CKAP4 = assay: SPR binding to full-length His-tagged CKAP4
Protocol: FL-CKAP4 was expressed in HEK 293 T cells (ATCC) and similarly purified by IMAC. Briefly, HEK 293 T cells were transfected with pcDNA3.1/V5-His TOPO vector (Life Technologies) expressing FL-CKAP4 using X-tremeGENE 9 transfection reagent (Roche) according to manufacturer’s protocol. Cells were harvested after transient expression (24 h) and held at −80 °C before proceeding to purification. Cell lysate was prepared in PBS buffer containing 10 mM CHAPS, 20 mM imidazole and EDTA-free protease inhibitor cocktail and sonicated before proceeding to protein purification, as described above. All purified proteins were quantitated by the BCA method according to the manufacturer’s protocol using BSA as the standard (ThermoScientific). Because of the varied amino acid compositions of the purified recombinant proteins, the UV (λ280nm) absorbance method was also used for reference.
All SPR experiments were performed on a Biacore X-100 instrument (GE Healthcare) with the chip surface at 25 °C using PBS containing 0.01% Tween-20 as running buffer. CKAP4 recombinant proteins were immobilized individually either by Ni^2+/nitrilotriacetic acid (NTA) chelation on Sensor Chip NTA or by amine-coupling on Sensor Chip CM5, on the Fc2 channel. […] The data were analyzed using Biacore Evaluation software V2.0. […]

- detection in normal urine (CKAP4_127–360): in a dose-dependent manner
- binding (full-length CKAP4; CKAP4FL immobilized via His-tag on NTA chip): did not generate sufficient binding
Substance: Neu5Acα2 − 3Galβ1 − 3GalNAcα-O-TVPAAVVVA [APF]
- binding activity (full-length CKAP4; full-length His-tagged CKAP4 purified from mammalian cells): did not detect appreciable binding activity
